The nature of data set [1]: Stability in mouse liver microsomes. It is filed as in vitro ADME. As for the experimental part: (§1) Half-life Human Microsomes: Compounds were evaluated for stability in human liver microsomes. A 10 mM stock solution of the compound being evaluated was prepared in DMSO and diluted with water:acetonitrile (1:1) to a concentration of 1 mM. A working concentration of 100 μM was prepared by further dilution with water:acetonitrile (1:1). To make the preincubation mixture, 2.5 μL of the diluted compound was combined with 75 μL of human liver microsomes at 3.33 mg/mL, and 85 μL of 100 mM potassium phosphate buffer, and this mixture was pre-incubated for 10 min at 37° C. To make the 60 minute mixture without cofactor, 32.5 μL of the preincubation mixture was combined with 17.5 μL of 100 mM potassium phosphate buffer and incubated for 60 min at 37° C. To make the 0 min sample with cofactor (NADPH), 16.25 μL of the preincubation mixture was combined with 200 μL of acetonitrile containing internal standard and 8.75 μL of cofactor (NADPH). To make the incubation mixture, 62 μL of cofactor (2.85 mM) was combined with the remaining incubation mixture, and incubated for 60 min at 37° C. To prepare the sample mixture to be evaluated, 25 μL incubation mixture was combined with 200 μL of acetonitrile containing internal standard and vortexed for 5 min at 1200 rpm, then centrifuged for 10 min at 4000 rpm. The supernatant was diluted 2 fold with water and injected on LC-MS/MS. The sample mixture was evaluated by LC-MS/MS using 10 mM ammonium acetate with 0.1% FA as the aqueous mobile phase, and methanol as the organic mobile phase.
Half-life Mouse Microsomes: Compounds were evaluated in mouse liver microsomes following a similar procedure as described above for human liver microsomes. A similar procedure could be used to evaluate compounds in rat liver microsomes.
Background: Liver microsomes are vesicles of endoplasmic reticulum, rich in cytochrome P450 enzymes.

Data set [2] deals with SREBP. The data set can be described thus: Reporter Screening Assay (SRE-luciferase reporter, HepG2). The class given is cell-based. As to conditions: Homo sapiens, SREBPv1 Reporter cell line HepG2, 24 hours, 0.01 uM to 10 uM, read-out: I: Reporter Screening Assay (Ave EC50 (nM)). Here is the method: Reporter Screening Assay: This assay was used to evaluate the effect on transcriptional activity SREBP of selected compounds using an SRE-luciferase reporter construct. On day 1, 10,000 cells were seeded in a 96 well (white) plate as per the plate map in Growth media without antibiotics. Cells were incubated at 37° C. for 8 hours. After 8 hours, cells were washed with DPBS for complete removal of FBS. DPBS was completely removed and Growth media was replaced with phenol free treatment medium (90 μl) with different FBS concentrations. The cells were then incubated at 37° C. for 24 hours with varying doses (0.01 uM to 10 uM) of compounds. Then a Luciferase assay was performed.
Reagents for performing Luciferase assay were stored at −20° C. To a tube of lyophilized assay substrate was added 1 mL Substrate Solvent and mixed well. The Substrate tube after reconstitution was covered with aluminum foil so as to keep it protected from light. The assay buffer was thawed to room temperature. To 20 mL Assay Buffer was added 200 µL of reconstituted 100× Substrate and mixed well. The reconstituted substrate as well as the assay solution (buffer + substrate) was protected from light throughout the procedure by keeping it covered with aluminum foil. Using a multi-channel pipette, 100 μL Assay Solution (buffer + substrate) was added directly to each sample well in Plate 1, which was incubated for 30 min (plate was covered with aluminum foil). After 30 min incubation, the plate was read for total luminescence. Each well was read for 2 seconds in a plate luminometer. (Microplate reader Envision Microplate reader from Perkin Elmer). Precaution was taken to incubate plate exactly for 30 min prior to reading on the plate reader.
Reporter Assay Materials: SREBPv1 Reporter cell line: HepG2-#32251. Growth Medium: MEM (Corning 10-010), 10% FBS, 1% GlutaMax (Invitrogen Catalog #35050061), […] (Invitrogen Catalog #A1113803) and 1% Penicillin-Streptomycin (Pen-Strep). Treatment Media: Phenol-free MEM (Invitrogen Catalog #51200-038) and 1% GlutaMax (Invitrogen Catalog #35050061). Luciferase Assay: LightSwitch Luciferase Assay Kit (Catalog #32032). LDH assay: Pierce LDH Cytotoxicity Assay Kit (Catalog #SD249616).

Data set [3] can be described thus: Stability in human liver microsomes. It is filed as in vitro ADME. Conditions: 60 min at 37° C., NADPH. Here is the method: as §1
Data set [4] deals with ACACA. The data set can be described thus: Gene expression in HepG2 cells (qPCR), ACACA. It is filed as cell-based. As to conditions: for 48 hours, normalized to β-Actin, relative to mock or vehicle treated cells (ΔΔCT). As for the experimental part: Gene Expression: The effect of selected compounds on the gene expression of HepG2 cells was evaluated. HepG2 cells (P2) were seeded in 24 well plate (80,000 cells/well) for RNA extraction and in a 96 well plate (10,000 cells/well) for Cell Titer Glow (CTG). The media used was DMEM and contained 10% FBS. Each compound was evaluated at […] for 48 hours. Two biological replicates per experimental group were evaluated for RNA. For gene analysis, RNA was harvested with RNEasy kit and 20-100 ng used to synthesize cDNA with random primers. Quantitative PCR was performed on 1 pg to 100 ng cDNA for the following genes: ACACA, ACLY, FASN, LSS, PNPLA3. Gene expression levels were normalized with housekeeping gene, β-Actin, and relative expression levels determined using ΔΔCT method comparing treated to mock or vehicle treated cells as a baseline. “Total” gene expression refers to the average of the values of the 5 genes listed above.
A general note: Quantitative PCR measures a nucleic acid by following its amplification.

SMILES strings stand for the structures. Some results are limits rather than exact numbers.

One may read the EC50 as the concentration at which the effect is half-maximal.

With `O=C(c1ccc(-c2cc(-c3ccnc4c3NCCO4)cs2)c(Cl)c1)N1CCC(O)CC1` [Compound I-1629084, (3-chloro-4-(4-(2,3-dihydro-1H-pyrido[2,3-b][l,4]oxazin-8-yl)thiophen-2-yl)phenyl)(4-hydroxypiperidin-1-yl)methanone], the “percent remaining after 60 min in mouse liver microsomes” value in data set [1] was “++ (30.1-60 = ++)”. The EC50 in data set [2] was less than 249 nM. In data set [3], the “percent remaining after 60 min in human liver microsomes” value is reported as “+ (0-30 = +)”. The “A: ACACA, effect of compounds on gene expression of HepG2 cells” value (from here on “A: ACACA, effect of compounds”) in data set [4] is given as “++ (0.31-0.7509 = ++)”.
The like results for `O=C(c1ccc(-c2cc(-c3ccnc(CC4(O)CCC4)c3)cs2)c(Cl)c1)N1CCC(O)CC1` [Compound I-1629077, (3-chloro-4-(4-(2-((1-hydroxycyclobutyl)methyl)pyridin-4-yl)thiophen-2-yl)phenyl)(4-hydroxypiperidin-1-yl)methanone] were, in that order, “++ (30.1-60 = ++)”, less than 249 nM, “+ (0-30 = +)” and “++ (0.31-0.7509 = ++)”.
Consider `CC1(O)CCN(C(=O)c2ccc(-c3cc(-c4ccnc(C5(CO)CC5)c4)cs3)c(Cl)c2)CC1` [Compound I-1629069, (3-chloro-4-(4-(2-(l-(hydroxymethyl)cyclopropyl)pyridin-4-yl)thiophen-2-yl)phenyl)(4-hydroxy-4-methylpiperidin-1-yl)methanone], for which the “percent remaining after 60 min in mouse liver microsomes” value in data set [1] was “+ (0-30 = +)”. In data set [2], the EC50 was more than 500 nM. Moreover, in data set [3], the “percent remaining after 60 min in human liver microsomes” value is “+ (0-30 = +)”. The “A: ACACA, effect of compounds” value in data set [4] is reported as “+ (>0.751 = +)”.
As for `O=C(c1ccc(-c2cc(-c3ccnc(C4(O)COC4)c3)cs2)c(Cl)c1)N1CCC(O)CC1` [Compound I-1629083, (3-chloro-4-(4-(2-(3-hydroxyoxetan-3-yl)pyridin-4-yl)thiophen-2-yl)phenyl)(4-hydroxypiperidin-1-yl)methanone], the “percent remaining after 60 min in mouse liver microsomes” value in data set [1] is “+++ (≥60.1 = +++)”. Moreover, the 50% effective concentration (EC50) in data set [2] is 250 to 500 nM. The “percent remaining after 60 min in human liver microsomes” value in data set [3] was “+++ (≥60.1 = +++)”. In addition, the “A: ACACA, effect of compounds” value in data set [4] is listed as “+ (>0.751 = +)”.
For the compound `O=C(c1ccc(-c2cc(-c3ccnc(C4(CO)CC4)c3)cs2)c(Cl)c1)N1CCC(O)CC1` [Compound I-1628961, (3-chloro-4-(4-(2-(1-(hydroxymethyl)cyclopropyl)pyridin-4-yl)thiophen-2-yl)phenyl)(4-hydroxypiperidin-1-yl)methanone], the “percent remaining after 60 min in mouse liver microsomes” value in data set [1] is on record as “+++ (≥60.1 = +++)”. In data set [2], the EC50 is less than 249 nM. Moreover, the “percent remaining after 60 min in human liver microsomes” value in data set [3] is “+++ (≥60.1 = +++)”. The “A: ACACA, effect of compounds” value in data set [4] is reported as “++ (0.31-0.7509 = ++)”.
With `O=C(c1ccc(-c2cc(-c3ccnc(C4CCCO4)c3)cs2)c(Cl)c1)N1CCC(O)CC1` (centres unmarked) [Compound I-1628777, (3-chloro-4-(4-(2-(tetrahydrofuran-2-yl)pyridin-4-yl)thiophen-2-yl)phenyl)(4-hydroxypiperidin-1-yl)methanone], the “percent remaining after 60 min in mouse liver microsomes” value in data set [1] is “+++ (≥60.1 = +++)”. For the same compound, the EC50 in data set [2] was in the range of 250 to 500 nM. For the same compound, the “percent remaining after 60 min in human liver microsomes” value in data set [3] is “+ (0-30 = +)”. In addition, the “A: ACACA, effect of compounds” value in data set [4] is reported as “++ (0.31-0.7509 = ++)”.
For `O=C(c1ccc(-c2cc(-c3ccnc(C4CCOC4)c3)cs2)c(Cl)c1)N1CCC(O)CC1` (centres unmarked) [Compound I-1628763, (3-chloro-4-(4-(2-(tetrahydrofuran-3-yl)pyridin-4-yl)thiophen-2-yl)phenyl)(4-hydroxypiperidin-1-yl)methanone] the same measures were “+++ (≥60.1 = +++)”, less than 249 nM, “+ (0-30 = +)” and “++ (0.31-0.7509 = ++)”.
For `O=C(c1ccc(-c2cc(-c3ccnc4c3NCCN4)cs2)c(Cl)c1)N1CCC(O)CC1` [Compound I-1629068, (3-chloro-4-(4-(l,2,3,4-tetrahydropyrido[2,3-b]pyrazin-8-yl)thiophen-2-yl)phenyl)(4-hydroxypiperidin-1-yl)methanone] the same measures were “+ (0-30 = +)”, less than 249 nM, “++ (30.1-60 = ++)” and “++ (0.31-0.7509 = ++)”.
The like results for `O=C(c1ccc(-c2cc(-c3ccnc(C4(O)CCC4)c3)cs2)c(Cl)c1)N1CCC(O)CC1` [Compound I-1629076, (3-chloro-4-(4-(2-(1-hydroxycyclobutyl)pyridin-4-yl)thiophen-2-yl)phenyl)(4-hydroxypiperidin-1-yl)methanone] were, in that order, “+++ (≥60.1 = +++)”, less than 249 nM, “+++ (≥60.1 = +++)” and “++ (0.31-0.7509 = ++)”.
With `O=C(c1ccc(-c2cc(-c3ccnc(CC4(F)CCC4)c3)cs2)c(Cl)c1)N1CCC(O)CC1` [Compound I-1629078, (3-chloro-4-(4-(2-((1-fluorocyclobutyl)methyl)pyridin-4-yl)thiophen-2-yl)phenyl)(4-hydroxypiperidin-1-yl)methanone], the “percent remaining after 60 min in mouse liver microsomes” value in data set [1] was “+++ (≥60.1 = +++)”. For the same compound, in data set [2], the EC50 is less than 249 nM. Also, in data set [3], the “percent remaining after 60 min in human liver microsomes” value is “+ (0-30 = +)”. In addition, in data set [4], the “A: ACACA, effect of compounds” value is given as “++ (0.31-0.7509 = ++)”.
For `O=C(c1ccc(-c2cc(-c3ccnc(C4CCOCC4)c3)cs2)c(Cl)c1)N1CCC(O)CC1` [Compound I-1628752, (3-chloro-4-(4-(2-(tetrahydro-2H-pyran-4-yl)pyridin-4-yl)thiophen-2-yl)phenyl)(4-hydroxypiperidin-1-yl)methanone] the same measures were “+++ (≥60.1 = +++)”, more than 500 nM, “+ (0-30 = +)” and “+ (>0.751 = +)”.

For the origin of these results see US20230147993A1, “THIOPHENE COMPOUNDS WITH CYCLIC AMIDES, AND USES THEREOF” (Capulus Therapeutics, LLC, priority 2019, published 2023).
